Laboratory results reported in article PMC12118597 (Science Advances, 2025).
Several values for one entry are separate records, joined by “and”; a condition that tells them apart may be missing. Equal entries are not always repeated. Where two headings read alike, the source gives them in different places.

How the values were obtained:
[1] = biological target: T1, SARS-CoV-2 NSP3 macrodomain (Mac1) (Severe acute respiratory syndrome coronavirus 2, UniProt P0DTD1); assay: biochemical; type: binding
[2] = biological target: T1, SARS-CoV-2 NSP3 macrodomain (Mac1); type: binding; settings: for 1-BDC (PanDDA run, DMSO background map): event 1; for Total number of conformations: ligand conformations modeled in the crystal structure; for 2*(1-BDC) (%): occupancy estimate from PanDDA
[3] = HTRF binding curve, SARS-CoV-2 Mac1
[4] = PanDDA background density correction factor
[5] = TRUE = ligand-bound crystal structure obtained (PDB code given)
[6] = crystal soak concentration 20 mM, DMSO background map
[7] = crystal soak concentration 20 mM, P43 crystals
[8] = refined crystallographic occupancy
[9] = site of Mac1 occupied in the X-ray crystal structure (Adenosine or Distal)
[10] = soak concentration 10 mM, DMSO background map
[11] = soak concentration 10 mM, P43 crystals
[12] = SARS CoV-2 macrodomain HTRF assay, dose-response
[13] = crystal soak 10 mM, P43 crystal form
[14] = crystal soak 10 mM, DMSO background map
[15] = ligand-bound crystal structure obtained (TRUE)
[16] = site occupied in X-ray crystal structure
[17] = TRUE = crystal structure with ligand obtained
[18] = site of ligand in X-ray crystal structure

For `OCC(Cc1ccccc1)Nc1ncnc2[nH]ccc12` (stereo not shown) [AVI-313], the Hill slope [1, 3] was 1.2, the Hill slope ([1]; dose-response) was 1.2 and the “Occupancy difference (refined_occupancy - 2*(1-BDC))” value (shortened to “Occupancy difference”) [2] was 14. The 1-BDC [2, 4] was 0.18, the X-ray crystal structure [2, 5] was “TRUE” and the “Hit (PanDDA run, DMSO background map)” value [2, 6] was “TRUE”. The “1-BDC (PanDDA run, DMSO background map)” value [2, 6] was 0.25, the “Hit (PanDDA run, overall)” value [2, 7] was “TRUE” and the “Modeling comment (PanDDA run, overall)” value [2, 7] was “Duplicate, not modeled”. The “Total number of conformations” value [2] was 2, the “2*(1-BDC) (%)” value [2] was 36% and the “Refined ligand occupancy (%)” value [2, 8] was 50%. The Binding site [2, 9] was “Adenosine”, the “PanDDA run, DMSO background map: 1-BDC” value [2, 10] was 0.18 and the “PanDDA run, DMSO background map: Hit” value [2, 10] was “TRUE”. For the same molecule, the “PanDDA run, DMSO background map: Modeled” value [2, 10] was “TRUE”, the “PanDDA run, overall: Hit” value [2, 11] was “TRUE” and the “PanDDA run, overall: Modeled” value [2, 11] was “TRUE”.

In the case of `CC(CNC(=O)c1ccc2c(c1)CCC(=O)N2)C(=O)O` (stereo not shown) [AVI-328], the Hill slope [1, 3] is reported as 1.3, the inhibition at 200 µM ([1]; compound at 200 μM, mean of three to four technical replicates, read-out: % competition at 200 μM (preliminary HTRF screen)) is reported as 50% and the Hill slope ([1]; dose-response) is reported as 1.3. For the same molecule, the “Occupancy difference” value [2] was 0, the 1-BDC [2, 4] was 0.11 and the X-ray crystal structure [2, 5] was “TRUE”. For the same molecule, the “Total number of conformations” value [2] was 2, the “2*(1-BDC) (%)” value [2] was 22% and the “Refined ligand occupancy (%)” value [2, 8] was 22%. The Binding site [2, 9] was “Adenosine”, the “PanDDA run, DMSO background map: 1-BDC” value [2, 10] was 0.11 and 0.1 and the “PanDDA run, DMSO background map: Hit” value [2, 10] was “TRUE”. For the same molecule, the “PanDDA run, DMSO background map: Modeled” value [2, 10] was “TRUE”, the “PanDDA run, overall: Hit” value [2, 11] was “TRUE” and the “PanDDA run, overall: Modeled” value [2, 11] was “TRUE”. For the same molecule, the “PanDDA run, overall: Modeling comment” value [2, 11] was “Duplicate, not modeled”.

For `CC1CC(C(=O)O)CN(C(=O)CSc2ccc(O)cc2)C1` (stereo not shown) [AVI-334], the Average % competition ([1]; single dose concentration 200 μM (TS-FrankenROCS series)) was 25%, the “PanDDA run, DMSO background map: 1-BDC” value [2, 10] was 0.07 and the “PanDDA run, DMSO background map: Hit” value [2, 10] was “TRUE”. For the same molecule, the “PanDDA run, overall: Hit” value [2, 11] was “TRUE” and the “PanDDA run, overall: Modeling comment” value [2, 11] was “Weak density, not modeled”.

Molecule `O=C1CCc2cc(C(=O)N3CC(C(=O)O)CCC34CCCC4)c(F)cc2N1` (stereo not shown) [AVI-338] has a Hill slope [1, 3] of 1.5, a Hill slope ([1]; dose-response) of 1.5 and a 1-BDC ([2]; PanDDA background density correction, 1-BDC) of 0.07. For the same molecule, the X-ray crystal structure [2, 5] was “TRUE”, the “Hit (PanDDA run, DMSO background map)” value [2, 6] was “TRUE” and the “Modeled (PanDDA run, DMSO background map)” value [2, 6] was “TRUE”. The “1-BDC (PanDDA run, DMSO background map)” value [2, 6] was 0.07, the “Hit (PanDDA run, overall)” value [2, 7] was “TRUE” and the “Modeled (PanDDA run, overall)” value [2, 7] was “TRUE”. For the same molecule, the “Refined ligand occupancy (%)” value ([2]; crystallographic refinement) was 14%, the “2*(1-BDC) (%)” value [2] was 14% and the Binding site [2, 9] was “Adenosine”.

`OC[C@@H]1C[C@H](O)CN1c1ncnc2[nH]ccc12` [AVI-610] was tested, and the Hill slope [1, 3] was 1.2, the Hill slope [1, 12] was 1.2 and the “Occupancy difference” value [2] was 18. The 1-BDC [2, 4] was 0.21, the “PanDDA run, overall: Hit” value [2, 13] was “TRUE” and the “PanDDA run, DMSO background map: 1-BDC” value [2, 14] was 0.34 and 0.31 and 0.21 and 0.26. For the same molecule, the “PanDDA run, DMSO background map: Hit” value [2, 14] was “TRUE”, the “Total number of conformations” value [2] was 1 and the X-ray crystal structure [2, 15] was “TRUE”. For the same molecule, the “2*(1-BDC) (%)” value [2] was 42%, the “Refined ligand occupancy (%)” value [2, 8] was 60% and the Binding site [2, 16] was “Adenosine”.

With `OCC(Nc1ncnc2[nH]ccc12)C1CC1` (stereo not shown) [AVI-3651] the Hill slope [1, 3] was 1.2, the Hill slope [1, 12] was 1.2 and the “Occupancy difference” value [2] was 0. The 1-BDC [2, 4] was 0.18, the X-ray crystal structure [2, 17] was “TRUE” and the “PanDDA run, overall: Hit” value [2, 13] was “TRUE”. For the same molecule, the “PanDDA run, overall: Modeled” value [2, 13] was “TRUE”, the “PanDDA run, DMSO background map: 1-BDC” value [2, 14] was 0.18 and the “PanDDA run, DMSO background map: Hit” value [2, 14] was “TRUE”. For the same molecule, the “Total number of conformations” value [2] was 1, the “2*(1-BDC) (%)” value [2] was 36% and the “Refined ligand occupancy (%)” value [2, 8] was 36%. The Binding site [2, 18] was “Adenosine”.

With `O[C@H]1CC[C@@H]2CCN(c3ncnc4[nH]ccc34)[C@@H]21` [AVI-3664] the Hill slope [1, 3] was 1.2, the Hill slope [1, 12] was 1.2 and the “Occupancy difference” value [2] was 0. For the same molecule, the 1-BDC [2, 4] was 0.16, the “PanDDA run, overall: Hit” value [2, 13] was “TRUE” and the “PanDDA run, overall: Modeled” value [2, 13] was “TRUE”. The “PanDDA run, DMSO background map: 1-BDC” value [2, 14] was 0.16, the “PanDDA run, DMSO background map: Hit” value [2, 14] was “TRUE” and the “Total number of conformations” value [2] was 1. The X-ray crystal structure [2, 15] was “TRUE”, the “2*(1-BDC) (%)” value [2] was 32% and the “Refined ligand occupancy (%)” value [2, 8] was 32%. The Binding site [2, 16] was “Adenosine”.

In the case of `CCC(O)[C@H]1CCCN1c1ncnc2[nH]ccc12` (stereo partly shown) [AVI-3666], the Hill slope [1, 3] is reported as 1.3, the Hill slope [1, 12] is reported as 1.3 and the “Occupancy difference” value [2] is reported as 10. The 1-BDC [2, 4] was 0.3, the “PanDDA run, overall: Hit” value [2, 13] was “TRUE” and the “PanDDA run, overall: Modeled” value [2, 13] was “TRUE”. For the same molecule, the “PanDDA run, DMSO background map: 1-BDC” value [2, 14] was 0.3, the “PanDDA run, DMSO background map: Hit” value [2, 14] was “TRUE” and the “Total number of conformations” value [2] was 1. For the same molecule, the X-ray crystal structure [2, 15] was “TRUE”, the “2*(1-BDC) (%)” value [2] was 60% and the “Refined ligand occupancy (%)” value [2, 8] was 70%. For the same molecule, the Binding site [2, 16] was “Adenosine”.

With `O=C(O)C(F)(F)F.OCC1(Nc2ncnc3[nH]ccc23)CCC1` [AVI-3670] the Hill slope [1, 3] was 1.2, the Hill slope [1, 12] was 1.2 and the “Occupancy difference” value [2] was 0. For the same molecule, the 1-BDC [2, 4] was 0.18, the X-ray crystal structure [2, 17] was “TRUE” and the “PanDDA run, overall: Hit” value [2, 13] was “TRUE”. For the same molecule, the “PanDDA run, overall: Modeled” value [2, 13] was “TRUE”, the “PanDDA run, DMSO background map: 1-BDC” value [2, 14] was 0.18 and the “PanDDA run, DMSO background map: Hit” value [2, 14] was “TRUE”. For the same molecule, the “Total number of conformations” value [2] was 2, the “2*(1-BDC) (%)” value [2] was 36% and the “Refined ligand occupancy (%)” value [2, 8] was 36%. The Binding site [2, 18] was “Adenosine”.

With `CN(C)CC(CO)Nc1ncnc2[nH]ccc12` (stereo not shown) [AVI-3671] the “detectable binding at 200 μM in the HTRF assay” value ([1]; result in words) was “neither had detectable binding”, the “Occupancy difference” value [2] was 0 and the 1-BDC [2, 4] was 0.17. For the same molecule, the X-ray crystal structure [2, 17] was “TRUE”, the “PanDDA run, overall: Hit” value [2, 13] was “TRUE” and the “PanDDA run, overall: Modeled” value [2, 13] was “TRUE”. For the same molecule, the “PanDDA run, DMSO background map: 1-BDC” value [2, 14] was 0.17, the “PanDDA run, DMSO background map: Hit” value [2, 14] was “TRUE” and the “Total number of conformations” value [2] was 1. For the same molecule, the “2*(1-BDC) (%)” value [2] was 34%, the “Refined ligand occupancy (%)” value [2, 8] was 34% and the Binding site [2, 18] was “Adenosine”.
